{"source": "patent US4153709A", "about": "“N-Heterocyclic ureas as immune regulants” (Eli Lilly and Company, priority 1977, dated 1979)", "key": {"[1]": {"test_system": "twelve histidine-auxotrophs of Salmonella typhimurium", "format": "cell-based", "experimental": "(§1) The in vivo and in vitro mutagenic potential of 1-(6-methoxy-2-benzothiazolyl)-3-phenyl-urea was negative when tested versus the twelve histidine-auxotrophs of Salmonella typhimurium at a level of 300 mg/kg in vivo and 750 mcg/ml in vitro. Imuran and Cytoxan, compounds with immunosuppressive activity; Streptozotacin, N-nitrosodimethylamine (DMNA) and trimethylenemelamine (TEM) known mutagens and/or carcinogens; and Acetylsalicylic Acid (ASA) were used as control compounds.\nThe plates were read as follows:\nCompounds found active in the qualitative test were further tested. The culture to be tested was grown to stationary phase in tryptone yeast broth and then diluted to a viable count of about 9×10^7 organisms per milliliter.\nEleven log4 dilutions of the test compound were made covering a range that would allow survival of nonlethal mutants. […] Final drug concentrations were calculated from 4-ml. volumes (3 ml. drug dilution +1 ml. test organism). Two of the \"0\" drug tubes were immediately plated at 10° dilution in minimal medium and 10^-5, 10^-6, 10^-7 dilutions in medium containing excess histidine (40 mcg/ml.) Spontaneous revertants (histidine+) were detected in the 10° dilution. Mutable population (histidine-) were detected in the 10^-5, 10^-6, and 10^-7 dilutions. […] All minimal media plates were counted. […]"}, "[2]": {"test_system": "antibody to sheep red blood cells", "assay": "75 percent reduction of control antibody titer in mice by subcutaneous, percutaneous and oral routes (Table 16)", "format": "in vivo, male Swiss mice", "details": "Mus musculus, Erythrocyte, × 10 daily doses commencing 3 days before antigen i.v.", "experimental": "Subcutaneous, percutaneous, and oral activity have been achieved as indicated in Table 16 which follows employing representative compounds from the above entitled application. […] Except as indicated, the tests were performed using groups of five 20-gram male Swiss mice injected with 5×10^7 sheep red blood cells intravenously for each drug level. Ten (daily) administrations of drug were made commencing three days prior to red blood cell injection. On the day following the final treatment (7 days after red blood cell injection) the animals were bled by cardiac puncture, the sera from each five-mouse-group were pooled, and antibody titers of these serum pools and corresponding serum pools from control (untreated) mouse groups were determined. The results are expressed as the minimum drug dose effecting 75 percent reduction of control antibody titer: […]"}, "[3]": {"test_system": "Salmonella typhimurium G46 missense histidine-auxotroph", "assay": "Qualitative in vitro prescreen for mutagenicity, G46 indicator (Table 22)", "details": "200 mcg disc", "quoted_text": "Filter paper discs 1/4\" were impregnated with 200 mcg of test compound using either H2 O or DMSO as solvent. The discs were placed on Petri dishes containing minimal media which had been individually seeded with one of the twelve tester strains. […] A uniform circle of colonies appear around the pad when a compound with mutagenic potential is present. The test compound forms a concentration gradient as it diffuses from the pad. Occasionally, there is a clear ring in close proximity to the pad surrounded by a uniform circle of revertant colonies which indicates a lethal mutation at high concentration of compound and nonlethal mutation at lesser concentration. A single pad thus allows one to test a compound over a wide range of concentrations. Histidine+ colonies were developed enough to read after 48 hr. incubation at 37° C. The plates were read as follows:\nA. background zone, if present, is measured in millimeters, if not, a negative is recorded (-).\nB. mutant zone is measured in millimiters, if present; if not, a negative (-) is recorded.\nC. the mutation frequency can be estimated from density of mutant colonies as follows:\n1. Low frequency--few colonies\n2. Moderate frequency--many colonies\n3. High frequency--dense ring of colonies\n4. No colonies recorded (-)"}, "[4]": {"test_system": "mouse skin graft rejection (AKR skin on C3H mice)", "assay": "Suppression of rejection of mouse-tail skin grafts (Table 19)", "format": "in vivo, mice (C3H recipients, AKR donors)", "details": "50 mg/kg/2 days, POT vehicle, control 19.6 ± 1.3", "excerpt": "Compounds disclosed herein have shown activity in suppressing the rejection of mouse skin grafts. […] Albino tail skin segments (AKR strain) were grafted onto the tails of groups of ten agouti recipient mice (C3H strain). Results achieved with two therapy regimens employing 1-(6-methoxy-2-benzothiazolyl)-3-phenyl urea were as follows:\n*Treatment was commenced 3 days prior to grafting and continued every 2nd\n**50% polyethylene glycol, 40% corn oil, 10% Tween 80"}, "[5]": {"test_system": "twelve histidine-auxotrophs of Salmonella typhimurium", "format": "in vivo, Salmonella typhimurium in Cox white Swiss male mice", "details": "300 mg/kg", "experimental": "as §1\nA. Drug Administration: Appropriate solvents were used where applicable with a solvent control run within each test. The compounds to be tested were given either subcutaneously along the backbone of the mouse (0.1 ml.) or by oral gavage (0.5 ml.) B. Inoculation Technique: The histidine- cultures G46, C209, C3076, and D3056 used as the TA15 series have lost pathogenicity to mice because of absence or decrease in the lipopolysaccharide coat. The organisms were grown to stationary phase, then diluted with normal saline to give an inoculum near 1×10^8 organisms per milliliter. The abdominal area of the drug-treated mouse was swabbed with alcohol and two milliliters of bacterial culture were injected into the abdominal cavity of the mouse. The mice were returned to their cages for 3-4 hours.\nC. Autopsy and Recovery: The mice were sacrificed individually by cervical dislocation prior to each autopsy. […]"}}, "note": "Where two headings read alike, the source gives them in different places.", "data": [{"smiles": "COc1ccc2nc(NC(=O)Nc3ccccc3)sc2c1", "note": "[Table 11: phenyl, 6-CH3 O, S, 1-(6-methoxy-2-benzothiazolyl)-3-phenyl urea]", "values": [{"measurement": "in vitro mutagenic potential", "setting": "[1]; 750 mcg/ml", "value": "negative"}, {"measurement": "mutagenicity for point mutations (overall statement)", "setting": "[1]; histidine- auxotrophs of Salmonella typhimurium", "value": "non-mutagenic"}, {"measurement": "minimal effective dose", "setting": "[2]; sc, subcutaneous, read-out: Lowest Dose Producing 75% Immunosuppression, Subcutaneous", "value": "0.8 to 1.6", "unit": "mg/kg"}, {"measurement": "minimal effective dose", "setting": "[2]; oral, read-out: Lowest Dose Producing 75% Immunosuppression, Oral", "value": "12.5 to 25", "unit": "mg/kg"}, {"measurement": "minimal effective dose", "setting": "[2]; percutaneous, read-out: Lowest Dose Producing 75% Immunosuppression, Percutaneous", "value": 12.5, "unit": "mg/kg"}, {"measurement": "IN VITRO QUALITATIVE ACTIVITY", "setting": "[3]", "value": "N"}, {"measurement": "Allograft Survival (Days ± S.E.)", "setting": "[4]; oral", "value": "25.2 ± 2.0", "unit": "Days"}, {"measurement": "Allograft Survival (Days ± S.E.)", "setting": "[4]; subcutaneous", "value": "27.7 ± 1.0", "unit": "Days"}, {"measurement": "in vivo mutagenic potential", "setting": "[5]", "value": "negative"}]}]}
